Patent US20110130374A1, “Small Pyrimidine Derivatives and Methods of Use Thereof” (BIOSEARCH(2007) LTD., priority 2009, published 2011)

Assays:
[1] = tested on: HT29 (colon) cells; assay: Transwell cell migration assay, HT29; assay type: cell-based; conditions: Homo sapiens, HT-29
Source text: (§1) A375 (melanoma) (CRL-1619, ATCC, Manassas, Va., USA), A431 (melanoma) (CRL-2592, ATCC, Manassas, Va., USA), A2058 (melanoma) (CRL-11147, ATCC, Manassas, Va., USA), MDA-MB-231 (breast) (HTB-26, ATCC, Manassas, Va., USA), LS175T (colon) (ATCC, Manassas, Va., USA), HT29 (colon) (HTB-38, ATCC, Manassas, Va., USA), PC3 (prostate) (CRL-1435, ATCC, Manassas, Va., USA), Panc03.27 (pancreatic) (ATCC, Manassas, Va., USA), 4T1 (breast-mouse) (CRL-2539, ATCC, Manassas. Va., USA), D122 (lung-mouse) (the Weizmann Institute of Science), D122-luc (lung-mouse) (the Weizmann Institute of Science), and B16 F10.9 (melanoma-mouse) cells (Caliper Life Sciences, Hopkinton Mass.), were grown in RPMI medium supplemented with 10% FBS. HUVEC cells were grown in Endothelial Cell Growth Medium 2 and THP1 cells were grown in RPMI medium supplemented with 10% FBS, 2 mM L-Glutamine, 1.5 g/L sodium bicarbonate, 10 mM Hepes, 1 mM sodium pyruvate, 4.5 g/L glucose and 0.05 mM 2-mercaptoethanol. The cells were starved for 24 hours in medium without FBS. […] Cells that migrated to the lower side of the membrane were stained with Calcein-AM (Sigma) and images were taken with a fluorescence microscope. The number of migrating cells was quantified by ImageJ software and the IC50 values were calculated using Prism software (Graphpad).

[2] = tested on: A431 (melanoma) cells; assay: Transwell cell migration assay, A431; assay type: cell-based; conditions: Homo sapiens, A-431
Source text: as §1

[3] = tested on: MDA-MB231 breast cancer cells; assay: Soft agar colony formation, MDA-MB231 breast cancer cells; assay type: cell-based; conditions: 14 days, MTT
Protocol: The assay was done using CYTOSELECT™ 96-Well In Vitro Tumor Sensitivity Assay kit from Cell Biolabs, Inc. (San-Diego, Calif.). The cells were grown for 14 days with RPMI and 10% FBS medium in the presence of the indicated concentration of Compound 1 (PRT7000467). The quantification of the colony formation on soft agar was done using MTT reagent after solubilization of the agar (all the materials are supplied in the kit). The IC50 value was calculated using Prism software.

[4] = tested on: D122-luc (lung-mouse) cells; assay: Transwell cell migration assay, D122-luc; assay type: cell-based
Source text: as §1

[5] = tested on: D122 (lung-mouse) cells; assay: Transwell cell migration assay, D122; assay type: cell-based
Source text: as §1

[6] = tested on: THP1 monocytes; assay: Transwell cell migration assay, THP1; assay type: cell-based; conditions: Homo sapiens, THP-1; THP1, Monocyte
Source text: as §1

[7] = tested on: B16 F10.9 (melanoma-mouse) cells; assay: Transwell cell migration assay, B16 F10.9; assay type: cell-based
Source text: as §1

[8] = tested on: HUVEC cells; assay: HUVEC tube-formation assay; assay type: cell-based, human; conditions: 25 μM, 6 h, BME with 50 ng/ml VEGF (FIG. 3)
Protocol: Human umbilical vein endothelial cells (HUVEC) were grown routinely in Endothelial Cell Growth Medium 2 with SupplementMix (PromoCell, Germany) containing 15% fetal bovine serum. For Tube-formation assay, 1×10^4 cells, in the above medium containing 5% fetal bovine serum, were seeded on top of Cultrex reduced growth factor Basement Membrane Extract (BME) (R&D Systems, Minneapolis, Minn.) supplemented with 50 ng/ml VEGF (Prospec, Israel). The cells were treated with either solvent (50% DMSO/50% PEG400), 25 μM compound 1 (PRT7000467), 10 μM LY294004 (Cayman Chemical, Ann Arbor, Mich.) or 3 μM FTY720 (Cayman Chemical, Ann Arbor, Mich.) as indicated. LY294004 is a PI3K inhibitor and FTY720 is a modulator of sphingosine-1-phosphate receptors, both of them served as positive controls. Six hours later the cells were stained with Calcein-AM (Sigma, Israel) and images were taken with a fluorescence microscope.

[9] = tested on: MDA-MB-468 breast cancer cells; assay: Transwell cell migration assay, MDA-MB-468 breast cancer cells; assay type: cell-based; conditions: MDA-MB-468, 12.5 μM, 24 h, 8 μm pore (FIG. 2)
Protocol: (§2) MDA-MB-231 (HTB-26, ATCC, Manassas, Va., USA) and MDA-MB-468 (HTB-132, ATCC, Manassas, Va., USA) breast cancer cell lines and DU 145 (HTB-81, ATCC, Manassas, Va., USA) prostate cancer cell line grown in RPMI medium supplement with 10% FBS were starved for 24 hours in medium without FBS. After 24 hours, 5×10^4 cells in FBS free medium were placed in the upper chamber of 24-well Transwell apparatus (CORNING TRANSWELL® polycarbonate membrane inserts, 8 μm pore size) with solvent (DMSO/PEG400) or 12.5 μM Compound 1 as indicated. Medium with FBS and Compound 1 was added to the bottom chamber. Twenty-four hours later the cells from the upper chamber were removed with a cotton swab. Cells that migrated to the lower side of the membrane were stained with Calcein-AM (Sigma) and images were taken with a fluorescence microscope.

[10] = tested on: 4T1 (breast-mouse) cells; assay: Transwell cell migration assay, 4T1; assay type: cell-based
Source text: as §1

[11] = tested on: Panc03.27 (pancreatic) cells; assay: Transwell cell migration assay, Panc03.27; assay type: cell-based; conditions: Homo sapiens, PANC-03-27; Panc 03.27, Pancreatic
Source text: as §1

[12] = tested on: DU145 prostate cancer cell line; assay: Transwell cell migration assay, DU 145 prostate cancer cell line; assay type: cell-based; conditions: DU145, 12.5 μM, 24 h, 8 μm pore (FIG. 2)
Protocol: as §2

In the case of `Cc1cc(C)nc(NS(=O)(=O)c2ccc(NC(=O)/C(=C\c3cccs3)NC(=O)c3cccs3)cc2)n1` [Compound 1], the IC50 [1] is reported as 1.5 µM, the IC50 [2] is reported as 1.1 µM and the “soft agar colony formation” value ([3]; MDA-MB231 breast cancer cells) is reported as “inhibits soft agar colony formation”. The “LD50 in the soft agar colony formation assay” value ([3]; MDA-MB231 cells) was 13.08 µM, the IC50 [4] was 1.6 µM and the IC50 [5] was 1.4 µM. The IC50 [6] was > 30 µM, the IC50 [7] was 0.2 µM and the “formation of tube-like structure by HUVEC cells” value [8] was “inhibits the formation of tube-like structure”. For the same compound, the “cell migration (Transwell, images)” value [9] was “inhibits the migration”, the IC50 [10] was 0.8 µM and the IC50 [11] was 1 µM. The “cell migration (Transwell, images)” value [12] was “inhibits the migration”.
